Reference: patent US6528517B1, “Synthesis of quinobenzoxazine analogues with topoisomerase II and quadruplex interactions for use as antineoplastic agents” (Board of Regents, The University of Texas System, priority 1998, dated 2003)

Assays:
[1] = system: supercoiled pHOT1 DNA; test: DNA unwinding assay; assay type: biochemical; settings: concentration shifting topoisomers to the middle position between relaxed and supercoiled bands
Method: A 22 μl mixture of 0.25 μg of supercoiled pHOT1 DNA, 5 units of topoisomerase I in topoisomerase I buffer (provided with the kit) was incubated at 37° C. for 30 min. Two μl of various concentrations of drug was added, and the incubation was continued for another 30 min. The reactions were terminated by addition of SDS to 1%. Proteinase K was added to the reaction mixtures to ca. 50 μg/ml, and the reaction mixtures were incubated for 15-20 min at 56° C. After adding 0.1 volume of 10×gel loading buffer, the reaction mixtures were extracted with an equal volume of CIA (Chloroform:isoamyl Alcohol; 24:1). The samples were loaded on an 1% agarous gel that was cast in TPE buffer (36 mM Tris-HCl, pH 7.8, 1 mM EDTA, 30 mM NaH2PO4) and 0.2 μg/ml Chloroquine. The gel was run in TPE buffer at room temperature at 10 volts for 20 h, destained in water for 15 min, stained in 0.05 μg/ml ethidium bromide for 15 min, and destained again in water for 15 min. The gel was then photographed, scanned by FluoroImager, and analyzed by ImageQuaNT software (Molecular Dynamics).

[2] = system: MDA-231 breast; test: Cancer cell growth inhibition assay (MTT); assay type: cell-based, human; settings: Homo sapiens, MDA-MB-231
Method: (§1) Exponentially growing cells in 0.1 ml medium were seeded on Day 0 in 96-well microtiter plates. On Day 1, 0.1-ml aliquots of medium containing graded concentrations test agent were added in duplicate to the cell plates. After incubation at 37° C. in a humidified incubator, the plates were centrifuged briefly (1-2 min at 1000 rpm), and 100 μl of the growth medium was removed. Cell cultures were incubated with 50 μl of 3-(4,5-dimethylthiazyl-2-yl)-2,5-diphenyltetrazolium bromide MTT, 1 mg/ml in Dubecco's PBS for 4 h at 37° C. The resulting purple formazan precipitate was solubilized with 200 μl of 0.4 N HCl in isopropyl alcohol. Absorbance was quantitated using a Bio-Rad Model 3550 microplate reader at a test wavelength of 570 nm and a reference wavelength of 630 nm. Absorbance values were transferred to a 486 personal computer, and the IC50 values were determined using the computer program EZ-ED50 (Chen et al., 1993).

[3] = system: Raji lymphoma; test: Cancer cell growth inhibition assay (MTT); assay type: cell-based, human; settings: Homo sapiens, Raji
Method: as §1

[4] = system: H226 non-small-cell lung; test: Cancer cell growth inhibition assay (MTT); assay type: cell-based, human; settings: Homo sapiens, NCI-H226
Method: as §1

[5] = system: DU-145 prostate; test: Cancer cell growth inhibition assay (MTT); assay type: cell-based, human; settings: Homo sapiens, DU-145
Method: as §1

[6] = system: HT-29 colon; test: Cancer cell growth inhibition assay (MTT); assay type: cell-based, human; settings: Homo sapiens, HT-29
Method: as §1

SMILES: N[C@H]1CCN(c2c(F)cc3c(=O)c(C(=O)O)cn4c3c2Oc2ccccc2-4)C1 [Compound A-62176, 1-(3-aminopyrrolidin-1-yl)-2-fluoro-4-oxo-4H-quino[2,3,4-i,j][1,4]benzoxazine-5-carboxylic acid, reference compound]
- DNA unwinding concn [1]: 50 µM
- IC50 [2]: 160 ± 20 nM
- IC50 [3]: 50 ± 6 nM
- IC50 [4]: 90 ± 3 nM
- IC50 [5]: 160 ± 30 nM
- IC50 [6]: 160 ± 10 nM
